Values joined by “and” are separate entries in the source; they are usually repeats but may differ in a detail not shown here. Identical values can stand only once. Toxic doses and inconclusive results are not listed.
Tested on: BDF1 mice, P388 leukemia ip, median survival T/C
Test: NCI In Vivo Anticancer Drug Screen. Data for tumor model P388 Leukemia (intraperitoneal) in B6D2F1 (BDF1) mice
Settings: endpoint: median survival time, higher = longer survival
Outline: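 Reported as T/C, where T is the survival measurement in dosed animals and C the same measurement in vehicle controls.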

[1] = dose: 100.0 mg/kg/injection, schedule: Q04DX003 (ip), vehicle: saline with Tween-80
[2] = dose: 200.0 mg/kg/injection, schedule: Q04DX003 (ip), vehicle: saline with Tween-80
[3] = dose: 400.0 mg/kg/injection, schedule: Q04DX003 (ip), vehicle: saline with Tween-80
[4] = dose: 50.0 mg/kg/injection, schedule: Q01DX009 (ip), vehicle: saline with Tween-80
[5] = dose: 100.0 mg/kg/injection, schedule: Q01DX009 (ip), vehicle: saline with Tween-80
[6] = dose: 100.0 mg/kg/injection, schedule: Q01DX001 (ip), vehicle: saline with Tween-80
[7] = dose: 400.0 mg/kg/injection, schedule: Q01DX001 (ip), vehicle: saline with Tween-80
[8] = dose: 200.0 mg/kg/injection, schedule: Q01DX005 (ip), vehicle: saline with Tween-80
[9] = dose: 200.0 mg/kg/injection, schedule: Q01DX009 (ip), vehicle: saline with Tween-80
[10] = dose: 100.0 mg/kg/injection, schedule: Q04DX003 (ip), vehicle: Klucel (hydroxypropylcellulose) (HPC)
[11] = dose: 200.0 mg/kg/injection, schedule: Q04DX003 (ip), vehicle: Klucel (hydroxypropylcellulose) (HPC)
[12] = dose: 400.0 mg/kg/injection, schedule: Q04DX003 (ip), vehicle: Klucel (hydroxypropylcellulose) (HPC)
[13] = dose: 100.0 mg/kg/injection, schedule: Q01DX005 (ip), vehicle: saline with Tween-80
[14] = dose: 12.5 mg/kg/injection, schedule: Q01DX009 (ip), vehicle: Klucel (hydroxypropylcellulose) (HPC)

CC1C(=O)OCC2=CCN3CCC(OC(=O)C(C)C1(C)O)C23 (stereo not drawn)
T/C (dose: 10.0 mg/kg/injection, schedule: Q01DX010 (ip), vehicle: saline): 100 % of control | T/C (dose: 20.0 mg/kg/injection, schedule: Q01DX010 (ip), vehicle: saline): 105 % of control | T/C (dose: 25.0 mg/kg/injection, schedule: Q01DX010 (ip), vehicle: carboxymethylcellulose (CMC)): 122 % of control | T/C (dose: 40.0 mg/kg/injection, schedule: Q01DX010 (ip), vehicle: saline): 150 % of control | T/C (dose: 50.0 mg/kg/injection, schedule: Q01DX010 (ip), vehicle: carboxymethylcellulose (CMC)): 111 % of control | T/C (dose: 100.0 mg/kg/injection, schedule: Q01DX010 (ip), vehicle: carboxymethylcellulose (CMC)): 88 % of control

S=C(c1ccco1)N1CCOCC1
T/C (dose: 37.5 mg/kg/injection, schedule: Q01DX009 (ip), vehicle: saline with Tween-80): 100 % of control | T/C (dose: 75.0 mg/kg/injection, schedule: Q01DX009 (ip), vehicle: saline with Tween-80): 104 % of control | T/C (dose: 150.0 mg/kg/injection, schedule: Q01DX009 (ip), vehicle: saline with Tween-80): 118 % of control

c1ccc(CCSc2ccccc2)cc1
T/C [1]: 113 % of control | T/C [2]: 109 % of control | T/C [3]: 118 % of control

S=P(NCCS)(N1CC1)N1CC1
T/C (dose: 25.0 mg/kg/injection, schedule: Q01DX009 (ip), vehicle: saline with Tween-80): 95 % of control | T/C [4]: 122 % of control | T/C [5]: 109 % of control

C#CCOC(=O)NCC
T/C (dose: 100.0 mg/kg/injection, schedule: Q01DX009 (ip), vehicle: saline): 100 % of control | T/C (dose: 100.0 mg/kg/injection, schedule: Q04DX003 (ip), vehicle: saline): 100 % of control | T/C (dose: 200.0 mg/kg/injection, schedule: Q01DX009 (ip), vehicle: saline): 115 % of control | T/C (dose: 200.0 mg/kg/injection, schedule: Q04DX003 (ip), vehicle: saline): 100 % of control | T/C (dose: 400.0 mg/kg/injection, schedule: Q01DX009 (ip), vehicle: saline): 115 % of control | T/C (dose: 400.0 mg/kg/injection, schedule: Q04DX003 (ip), vehicle: saline): 104 % of control

CCCS(=O)(=O)N(CC(=O)O)Cc1ccccc1
T/C (dose: 25.0 mg/kg/injection, schedule: Q04DX003 (ip), vehicle: other): 106 % of control | T/C (dose: 50.0 mg/kg/injection, schedule: Q04DX003 (ip), vehicle: other): 104 % of control | T/C (dose: 100.0 mg/kg/injection, schedule: Q04DX003 (ip), vehicle: other): 100 % of control | T/C (dose: 200.0 mg/kg/injection, schedule: Q04DX003 (ip), vehicle: other): 106 % of control | T/C (dose: 400.0 mg/kg/injection, schedule: Q04DX003 (ip), vehicle: other): 106 % of control

O=C(Nc1ccc(NC(=O)c2ccccc2)c(Sc2ccccc2)c1Sc1ccccc1)c1ccccc1
T/C [6]: 90 % of control | T/C [7]: 100 % of control

CC(C)(C)OC(=O)NC(CCC(=O)O)(Cc1ccccc1)C(=O)NC(CCC(=O)O)(Cc1ccccc1)C(=O)OCc1ccccc1 (stereo not drawn)
T/C [8]: 90 % of control

CC1=CC23C(COC(=O)C24CO4)C(C(=O)O)=CC3C1C (stereo not drawn) (tested in a mixture with another compound)
T/C (dose: 0.06 mg/kg/injection, schedule: Q01DX009 (ip), vehicle: Klucel (hydroxypropylcellulose) (HPC)): 105 % of control | T/C (dose: 0.13 mg/kg/injection, schedule: Q01DX009 (ip), vehicle: Klucel (hydroxypropylcellulose) (HPC)): 100 % of control | T/C (dose: 0.25 mg/kg/injection, schedule: Q01DX009 (ip), vehicle: Klucel (hydroxypropylcellulose) (HPC)): 105 % of control and 116 % of control

Nc1nc(N)c2cc(Sc3cccc(C(F)(F)F)c3)ccc2n1
T/C [4]: 113 % of control

CC(Cc1ccc2ccccc2c1)C(=O)c1ccc2ccccc2c1 (stereo not drawn)
T/C [6]: 100 % of control | T/C (dose: 200.0 mg/kg/injection, schedule: Q01DX001 (ip), vehicle: saline with Tween-80): 100 % of control | T/C [7]: 100 % of control

OCn1cnc2c(SC3CCCC3)ncnc21
T/C (dose: 75.0 mg/kg/injection, schedule: Q01DX009 (ip), vehicle: Klucel (hydroxypropylcellulose) (HPC)): 120 % of control

Cc1cc(C)c[n+](C2=C([O-])C(=O)C([n+]3cc(C)cc(C)c3)=C([O-])C2=O)c1
T/C [4]: 97 % of control | T/C [5]: 97 % of control | T/C [9]: 95 % of control

O=[N+]([O-])c1ccc(Sc2cccs2)c([N+](=O)[O-])c1
T/C [5]: 100 % of control | T/C [1]: 104 % of control | T/C [9]: 95 % of control | T/C [2]: 95 % of control | T/C (dose: 400.0 mg/kg/injection, schedule: Q01DX009 (ip), vehicle: saline with Tween-80): 108 % of control | T/C [3]: 100 % of control

O=c1ccc2nc3cc(Cl)ccc3sc-2c1
T/C (dose: 100.0 mg/kg/injection, schedule: Q01DX009 (ip), vehicle: Klucel (hydroxypropylcellulose) (HPC)): 109 % of control | T/C [10]: 100 % of control | T/C (dose: 200.0 mg/kg/injection, schedule: Q01DX009 (ip), vehicle: Klucel (hydroxypropylcellulose) (HPC)): 95 % of control and 105 % of control | T/C [11]: 90 % of control | T/C (dose: 400.0 mg/kg/injection, schedule: Q01DX009 (ip), vehicle: Klucel (hydroxypropylcellulose) (HPC)): 100 % of control | T/C [12]: 90 % of control

O=[N+]([O-])c1cc([N+](=O)[O-])c(NN(c2ccccc2)c2cccc3ccccc23)c([N+](=O)[O-])c1
T/C [10]: 91 % of control | T/C [11]: 116 % of control | T/C [12]: 87 % of control

Nc1nc(N)c2nc(/C=C/c3ccc4c(c3)OCO4)cnc2n1
T/C [4]: 88 % of control | T/C [5]: 88 % of control | T/C [9]: 88 % of control

CC(C)(C)OC(=O)NC(CCC(=O)O)(Cc1ccccc1)C(=O)NC(CCC(=O)OCc1ccccc1)C(=O)OCc1ccccc1 (stereo not drawn)
T/C [13]: 86 % of control | T/C [8]: 86 % of control

Cc1onc(-c2ccccc2)c1NC(=O)OCc1ccc(-c2cc(C(F)(F)F)cc(C(F)(F)F)c2)o1
T/C [4]: 97 % of control | T/C [5]: 99 % of control | T/C [9]: 99 % of control

Cn1ncc(=O)c(Cl)c1S
T/C (dose: 50.0 mg/kg/injection, schedule: Q01DX005 (ip), vehicle: saline with Tween-80): 97 % of control | T/C [13]: 93 % of control | T/C [8]: 99 % of control

CN1C2CCC1CN(Cc1ccccc1)C2
T/C (dose: 12.5 mg/kg/injection, schedule: Q01DX009 (ip), vehicle: saline): 95 % of control | T/C (dose: 12.5 mg/kg/injection, schedule: Q04DX003 (ip), vehicle: saline): 88 % of control | T/C (dose: 25.0 mg/kg/injection, schedule: Q01DX009 (ip), vehicle: saline): 95 % of control | T/C (dose: 25.0 mg/kg/injection, schedule: Q04DX003 (ip), vehicle: saline): 100 % of control | T/C (dose: 50.0 mg/kg/injection, schedule: Q01DX009 (ip), vehicle: saline): 91 % of control | T/C (dose: 50.0 mg/kg/injection, schedule: Q04DX003 (ip), vehicle: saline): 100 % of control

CC(=O)Oc1ccc(N2C(=O)C=CC2=O)cc1
T/C (dose: 1.56 mg/kg/injection, schedule: Q04DX003 (ip), vehicle: Klucel (hydroxypropylcellulose) (HPC)): 100 % of control | T/C (dose: 3.12 mg/kg/injection, schedule: Q01DX009 (ip), vehicle: Klucel (hydroxypropylcellulose) (HPC)): 104 % of control | T/C (dose: 3.12 mg/kg/injection, schedule: Q04DX003 (ip), vehicle: Klucel (hydroxypropylcellulose) (HPC)): 100 % of control | T/C (dose: 6.25 mg/kg/injection, schedule: Q01DX009 (ip), vehicle: Klucel (hydroxypropylcellulose) (HPC)): 104 % of control | T/C (dose: 6.25 mg/kg/injection, schedule: Q04DX003 (ip), vehicle: Klucel (hydroxypropylcellulose) (HPC)): 100 % of control | T/C (dose: 9.2 mg/kg/injection, schedule: Q04DX003 (ip), vehicle: Klucel (hydroxypropylcellulose) (HPC)): 90 % of control | T/C [14]: 109 % of control | T/C (dose: 14.0 mg/kg/injection, schedule: Q04DX003 (ip), vehicle: Klucel (hydroxypropylcellulose) (HPC)): 95 % of control

CCCCC(=O)NN(Cn1c(=S)sc2ccccc21)Cn1c(=S)sc2ccccc21
T/C [14]: 109 % of control | T/C (dose: 25.0 mg/kg/injection, schedule: Q01DX009 (ip), vehicle: Klucel (hydroxypropylcellulose) (HPC)): 109 % of control | T/C (dose: 50.0 mg/kg/injection, schedule: Q01DX009 (ip), vehicle: Klucel (hydroxypropylcellulose) (HPC)): 272 % of control

From PubChem BioAssay AID328 (DTP/NCI, 2004)
